In patent US8889874B2, “Imidazolone-chalcone derivatives as potential anticancer agent and process for the preparation thereof” (Council of Scientific and Industrial Research, priority 2010, dated 2014):
Read-outs that look alike come from different tables or passages of the source.

Experiments:
Format in all cases: cell-based, human
[1] = system: Leukemia cancer cell lines; test: NCI anticancer screen, SRB assay, panel summary; details: Homo sapiens
Experimental: (§1) Some of biological activity studies were carried out at the National Cancer Institute (NCI), Maryland, USA.
(§2) The compounds were evaluated for anticancer activity against fifty three human cancer cells derived from nine cancer types (leukemia cell line, non-small-cell lung cell line, colon cell line, CNS cell line, melanoma cell line, ovarian cell line, prostate cell line, and breast cancer cell line) as shown in Table 1. For each compound, dose response curves for each cell line were measured at a minimum of five concentrations at 10 fold dilutions. A protocol of 48 h continuous drug exposure was used and a sulforhodamine B (SRB) protein assay was used to estimate cell viability or growth.

CNS cancer cell lines = test: NCI anticancer screen, SRB assay, panel summary; details: for GI50: Homo sapiens
Experimental: as §1, §2

Breast cancer cell lines = test: NCI anticancer screen, SRB assay, panel summary; details: Homo sapiens
Experimental: as §1, §2

[2] = system: Ovarian cancer cell lines; test: NCI anticancer screen, SRB assay, panel summary; details: Homo sapiens
Experimental: as §1, §2

[3] = system: Non-small cell lung cancer cell lines; test: NCI anticancer screen, SRB assay, panel summary; details: Homo sapiens
Experimental: as §1, §2

[4] = system: Prostate cancer cell lines; test: NCI anticancer screen, SRB assay, panel summary
Experimental: as §1, §2

Renal cancer cell lines = test: NCI anticancer screen, SRB assay, panel summary; details: Homo sapiens
Experimental: as §1, §2

Colon cancer cell lines = test: NCI anticancer screen, SRB assay, panel summary; details: for GI50: Homo sapiens
Experimental: as §1, §2

[5] = system: Melanoma cancer cell lines; test: NCI anticancer screen, SRB assay, panel summary; details: for GI50: Homo sapiens
Experimental: as §1, §2

SK-MEL-28 (melanoma) = test: NCI anticancer screen, SRB assay, 48 h; details: Homo sapiens
Method in brief: (§3)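 Compounds were tested across fifty three human cancer cell lines from nine tumour types. Each line got a dose-response curve of at least five concentrations at 10-fold dilutions, with continuous drug exposure and sulforhodamine B protein staining to estimate viability or growth.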

[6] = system: NCI-H460 (non-small cell lung); test: NCI anticancer screen, SRB assay, 48 h; details: Homo sapiens
Method in brief: as §3

UACC-62 (melanoma) = test: NCI anticancer screen, SRB assay, 48 h; details: Homo sapiens
Method in brief: as §3

SF-268 (CNS) = test: NCI anticancer screen, SRB assay, 48 h; details: Homo sapiens
Method in brief: as §3

SW-620 (colon) = test: NCI anticancer screen, SRB assay, 48 h; details: Homo sapiens
Method in brief: as §3

RXF 393 (renal) = test: NCI anticancer screen, SRB assay, 48 h; details: Homo sapiens
Method in brief: as §3

BT-549 (breast) = test: NCI anticancer screen, SRB assay, 48 h; details: Homo sapiens
Method in brief: as §3

TD-47D (breast) = test: NCI anticancer screen, SRB assay, 48 h; details: Homo sapiens
Method in brief: as §3

HCT-116 (colon) = test: NCI anticancer screen, SRB assay, 48 h; details: Homo sapiens
Method in brief: as §3

OVCAR-3 (ovarian) = test: NCI anticancer screen, SRB assay, 48 h; details: Homo sapiens
Method in brief: as §3

M14 (melanoma) = test: NCI anticancer screen, SRB assay, 48 h; details: Homo sapiens
Method in brief: as §3

SK-OV-3 (ovarian) = test: NCI anticancer screen, SRB assay, 48 h; details: Homo sapiens
Method in brief: as §3

[7] = system: NCI-H522 (non-small cell lung); test: NCI anticancer screen, SRB assay, 48 h; details: Homo sapiens
Method in brief: as §3

SK-MEL-2 (melanoma) = test: NCI anticancer screen, SRB assay, 48 h; details: Homo sapiens
Method in brief: as §3

UO-31 (renal) = test: NCI anticancer screen, SRB assay, 48 h; details: Homo sapiens
Method in brief: as §3

SF-539 (CNS) = test: NCI anticancer screen, SRB assay, 48 h; details: Homo sapiens
Method in brief: as §3

SF-295 (CNS) = test: NCI anticancer screen, SRB assay, 48 h; details: Homo sapiens
Method in brief: as §3

[8] = 48 h exposure, SRB, read-out: GI50
[9] = read-out: pGI50 (-log of molar concentration causing 50% inhibition of net cell growth) (converted)

Compound: COc1cc(/C=C/C(=O)c2cccc(-n3cc(-c4ccccc4)[nH]c3=O)c2)ccc1O [3a, 1-3-[(E)-3-(4-hydroxy-3-methoxyphenyl)-2-propenoyl]phenyl-4-phenyl-2,3-dihydro-1H-2-imidazolone]
- GI50 ([1]; Leukemia panel, log of concentration in mol/L causing 50% inhibition of net cell growth, read-out: mean graph midpoint (MG_MID) of Log10 GI50 (converted)): 1.86 µM
- LC50 ([1]; Leukemia panel, log of concentration leading to 50% net cell death, read-out: mean graph midpoint (MG_MID) of Log10 LC50 (converted)): 66.1 µM
- GI50 ([1]; two leukemia cancer cell lines (RPMI-8226 and K-562), exposure at least 48 hrs, read-out: GI50, range over the panel): 1.67 to 2.04 µM
- mean graph midpoint (MG_MID) of Log10 LC50 (CNS cancer cell lines; CNS panel, log of concentration leading to 50% net cell death): 4.62
- GI50 (CNS cancer cell lines; CNS panel, log of concentration in mol/L causing 50% inhibition of net cell growth, read-out: mean graph midpoint (MG_MID) of Log10 GI50 (converted)): 2.57 µM
- GI50 (CNS cancer cell lines; six CNS cancer cell lines, exposure at least 48 hrs, read-out: GI50, range over the panel): 1.91 to 3.9 µM
- GI50 (Breast cancer cell lines; Breast panel, log of concentration in mol/L causing 50% inhibition of net cell growth, read-out: mean graph midpoint (MG_MID) of Log10 GI50 (converted)): 2.82 µM
- LC50 (Breast cancer cell lines; Breast panel, log of concentration leading to 50% net cell death, read-out: mean graph midpoint (MG_MID) of Log10 LC50 (converted)): 53.7 µM
- GI50 (Breast cancer cell lines; five breast cancer cell lines, exposure at least 48 hrs, read-out: GI50, range over the panel): 1.55 to 4.16 µM
- GI50 ([2]; Ovarian panel, log of concentration in mol/L causing 50% inhibition of net cell growth, read-out: mean graph midpoint (MG_MID) of Log10 GI50 (converted)): 3.24 µM
- LC50 ([2]; Ovarian panel, log of concentration leading to 50% net cell death, read-out: mean graph midpoint (MG_MID) of Log10 LC50 (converted)): 11.7 µM
- GI50 ([2]; six ovarian cancer cell lines, exposure at least 48 hrs, read-out: GI50, range over the panel): 2.04 to 5.19 µM
- GI50 ([3]; Non-small cell lung panel, log of concentration in mol/L causing 50% inhibition of net cell growth, read-out: mean graph midpoint (MG_MID) of Log10 GI50 (converted)): 2.57 µM
- LC50 ([3]; Non-small cell lung panel, log of concentration leading to 50% net cell death, read-out: mean graph midpoint (MG_MID) of Log10 LC50 (converted)): 41.7 µM
- GI50 ([3]; nine non-small cell lung cancer cell lines, exposure at least 48 hrs, read-out: GI50, range over the panel): 1.48 to 3.9 µM
- GI50 ([4]; Homo sapiens, log of concentration in mol/L causing 50% inhibition of net cell growth, read-out: mean graph midpoint (MG_MID) of Log10 GI50 (converted)): 2.51 µM
- LC50 ([4]; Homo sapiens, log of concentration leading to 50% net cell death, read-out: mean graph midpoint (MG_MID) of Log10 LC50 (converted)): ≥ 100 µM
- mean graph midpoint (MG_MID) of Log10 TGI ([4]; log of concentration resulting in total inhibition of net cell growth): 5.13
- GI50 (Renal cancer cell lines; Renal panel, log of concentration in mol/L causing 50% inhibition of net cell growth, read-out: mean graph midpoint (MG_MID) of Log10 GI50 (converted)): 2.4 µM
- LC50 (Renal cancer cell lines; Renal panel, log of concentration leading to 50% net cell death, read-out: mean graph midpoint (MG_MID) of Log10 LC50 (converted)): 34.7 µM
- GI50 (Renal cancer cell lines; eight renal cancer cell lines, exposure at least 48 hrs, read-out: GI50, range over the panel): 1.35 to 5.29 µM
- mean graph midpoint (MG_MID) of Log10 LC50 (Colon cancer cell lines; Colon panel, log of concentration leading to 50% net cell death): 4.68
- GI50 (Colon cancer cell lines; Colon panel, log of concentration in mol/L causing 50% inhibition of net cell growth, read-out: mean graph midpoint (MG_MID) of Log10 GI50 (converted)): 2.14 µM
- GI50 (Colon cancer cell lines; seven colon cancer cell lines, exposure at least 48 hrs, read-out: GI50, range over the panel): 1.4 to 3.77 µM
- GI50 ([5]; Melanoma panel, log of concentration in mol/L causing 50% inhibition of net cell growth, read-out: mean graph midpoint (MG_MID) of Log10 GI50 (converted)): 2.57 µM
- GI50 ([5]; nine melanoma cancer cell lines, exposure at least 48 hrs, read-out: GI50, range over the panel): 1.59 to 6.81 µM
- mean graph midpoint (MG_MID) of Log10 LC50 ([5]; Melanoma panel, log of concentration leading to 50% net cell death): 4.06
- GI50 (SK-MEL-28 (melanoma); [8]): 1.85 µM
- GI50 (SK-MEL-28 (melanoma); [9]): 1.86 µM
- GI50 [6, 8]: 1.95 µM
- GI50 [6, 9]: 1.95 µM
- GI50 (UACC-62 (melanoma); [8]): 2.01 µM
- GI50 (UACC-62 (melanoma); [9]): 2 µM
- GI50 (SF-268 (CNS); [8]): 2.07 µM
- GI50 (SF-268 (CNS); [9]): 2.09 µM
- GI50 (SW-620 (colon); [8]): 2.29 µM
- GI50 (SW-620 (colon); [9]): 2.29 µM
- GI50 (RXF 393 (renal); RXF 393, 48 h exposure, SRB, read-out: GI50): 2.27 µM
- GI50 (RXF 393 (renal); RXF-393, read-out: pGI50 (-log of molar concentration causing 50% inhibition of net cell growth) (converted)): 2.29 µM
- GI50 (BT-549 (breast); [8]): 2.78 µM
- GI50 (BT-549 (breast); [9]): 2.75 µM
- GI50 (TD-47D (breast); [8]): 2.7 µM
- GI50 (TD-47D (breast); [9]): 2.69 µM
- GI50 (HCT-116 (colon); [8]): 1.4 µM
- GI50 (HCT-116 (colon); [9]): 1.41 µM
- GI50 (OVCAR-3 (ovarian); [8]): 2.29 µM
- GI50 (OVCAR-3 (ovarian); [9]): 2.29 µM
- GI50 (M14 (melanoma); [8]): 2.61 µM
- GI50 (M14 (melanoma); [9]): 2.63 µM
- GI50 (SK-OV-3 (ovarian); [8]): 3.76 µM
- GI50 (SK-OV-3 (ovarian); [9]): 3.8 µM
- GI50 [7, 8]: 2.36 µM
- GI50 [7, 9]: 2.34 µM
- GI50 (SK-MEL-2 (melanoma); [8]): 3.65 µM
- GI50 (SK-MEL-2 (melanoma); [9]): 3.63 µM
- GI50 (UO-31 (renal); [8]): 2.18 µM
- GI50 (UO-31 (renal); [9]): 2.19 µM
- GI50 (SF-539 (CNS); [8]): 1.91 µM
- GI50 (SF-539 (CNS); [9]): 1.91 µM
- GI50 (SF-295 (CNS); [8]): 3.04 µM
- GI50 (SF-295 (CNS); [9]): 3.02 µM
